Tests used:
Assay in all cases: Bliss excess, mean over the matrix (fraction); higher = more synergy
[1] = test system: DiFi (Colorectal Carcinoma)
Summary of the method: (§1)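 Cell lines in DMEM/F12 or RPMI with 10% FBS were plated in 1536-well plates, held 24 hours at 37°C, 5% CO2, then given two-drug dose matrices for 72 hours (DMSO typically 0.2%). Viability was read by CellTiter-Glo 2.0 luminescence and scaled as inhibition from 0 (vehicle wells) to 1 (blank wells). Combination Emax is the second-highest inhibition in the matrix; Bliss excess is observed combination effect minus expected EA + EB − EA·EB, EA and EB being single-agent effects.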

[2] = test system: MEL-JUSO (Melanoma)
Summary of the method: as §1

[3] = test system: GR-ST (B-Lymphoblastic Leukemia)
Summary of the method: as §1

[4] = test system: MOLT-16 (T-Lymphoblastic Leukemia)
Summary of the method: as §1

[5] = test system: SR (Other Blood Carcinomas)
Summary of the method: as §1

[6] = test system: ES8 (Ewing's Sarcoma)
Summary of the method: as §1

[7] = test system: P12-ICHIKAWA (T-Lymphoblastic Leukemia)
Summary of the method: as §1

[8] = test system: MS751 (Cervical Carcinoma)
Summary of the method: as §1

[9] = test system: SW1417 (Colorectal Carcinoma)
Summary of the method: as §1

[10] = test system: WM-115 (Melanoma)
Summary of the method: as §1

[11] = test system: LN-18 (Glioblastoma)
Summary of the method: as §1

[12] = test system: BL-41 (Burkitt's Lymphoma)
Summary of the method: as §1

[13] = test system: SW837 (Colorectal Carcinoma)
Summary of the method: as §1

[14] = test system: HL-60 (Acute Myeloid Leukemia)
Summary of the method: as §1

[15] = test system: COLO-678 (Colorectal Carcinoma)
Summary of the method: as §1

[16] = test system: KARPAS-45 (T-Lymphoblastic Leukemia)
Summary of the method: as §1

[17] = test system: NCI-H2818 (Mesothelioma)
Summary of the method: as §1

[18] = test system: EVSA-T (Breast Carcinoma)
Summary of the method: as §1

[19] = test system: KCL-22 (Chronic Myelogenous Leukemia)
Summary of the method: as §1

[20] = test system: TOV-112D (Ovarian Carcinoma)
Summary of the method: as §1

Compound	Bliss excess [1]	Bliss excess [2]	Bliss excess [3]	Bliss excess [4]	Bliss excess [5]	Bliss excess [6]	Bliss excess [7]	Bliss excess [8]	Bliss excess [9]	Bliss excess [10]	Bliss excess [11]	Bliss excess [12]	Bliss excess [13]	Bliss excess [14]	Bliss excess [15]	Bliss excess [16]	Bliss excess [17]	Bliss excess [18]	Bliss excess [19]	Bliss excess [20]
CN(C)CCCOc1ccc(-c2ccc3ncc4c(c3c2)n(C2CCOCC2)c(=O)n4C)cn1 [AZD0156] + O=C(c1cc(Cc2n[nH]c(=O)c3ccccc23)ccc1F)N1CCN(C(=O)C2CC2)CC1 [Olaparib] (first compound max 3 µM, partner max 3 µM)	-0.0082	-0.0387	0.131	0.397	0.194	0.39	0.191	-0.0033	-0.0287	0.0028	0.0366	0.127	0.0159	0.141	-0.0152	0.0456	-0.0202	0.092	0.157	0.0851
CN(CCO)CC[C@H](CSc1ccccc1)Nc1ccc(S(=O)(=O)NC(=O)c2ccc(N3CCC([C@@H](O)c4ccccc4-c4ccc(Cl)cc4)CC3)cc2)cc1S(=O)(=O)C(F)(F)F [AZD4320] + C[C@@H](Nc1cc(F)cc(F)c1)c1cc(C(=O)N(C)C)cc2c(=O)cc(N3CCOCC3)oc12 [AZD8186] (first compound max 1 µM, 7x7, partner max 3 µM)	-0.034	0.033	-0.054	-0.0157	0.0428	0.0142	0.0502	0.0982	0.0346	0.0755	0.0608	0.0388	-0.0491		0.0221	0.0842	-0.0232	0.0222	0.0307	-0.0108
Cc1c2c(nn1C)CSCc1cc(n(C)n1)CSc1cc(c3ccccc3c1)OCCCc1c(C(=O)O)n(C)c3c-2c(Cl)ccc13 [AZD5991] + CC1(C)CCC(CN2CCN(c3ccc(C(=O)NS(=O)(=O)c4ccc(NCC5CCOCC5)c([N+](=O)[O-])c4)c(Oc4cnc5[nH]ccc5c4)c3)CC2)=C(c2ccc(Cl)cc2)C1 [Venetoclax] (first compound max 1 µM, 7x7, partner max 1 µM)	0.0436	-0.0297	-0.0484	0.063	0.0732	0.0936	0.0268	0.0031	-0.0294	-0.0496	-0.0167	0.0108	-0.0169	0.0723		0.141	-0.0489	0.0125	0.0111	0.0582
Cc1c2c(nn1C)CSCc1cc(n(C)n1)CSc1cc(c3ccccc3c1)OCCCc1c(C(=O)O)n(C)c3c-2c(Cl)ccc13 [AZD5991] + C[C@@H](Nc1cc(F)cc(F)c1)c1cc(C(=O)N(C)C)cc2c(=O)cc(N3CCOCC3)oc12 [AZD8186] (first compound max 1 µM, 7x7, partner max 3 µM)	0.0406	0.0086	-0.0352	-0.0154	-0.0278	0.042	-0.0058	0.0705	-0.0342	0.018	0.0079	-0.0096	-0.0156		-0.0613	0.0206	-0.0343	0.0412	-0.0268	-0.0028
CC(=O)c1c(C)c2cnc(Nc3ccc(N4CCNCC4)cn3)nc2n(C2CCCC2)c1=O [Palbociclib] + CN(CC[C@H](CSC1=CC=CC=C1)NC2=C(C=C(C=C2)S(=O)(=O)NC(=O)C3=CC=C(C=C3)N4CCC(CC4)[C@H](C5=CC=CC=C5C6=CC=C(C=C6)Cl)O)S(=O)(=O)C(F)(F)F)CCO [AZD4320] (first compound max 10 µM, 7x7, partner max 1 µM)	-0.0038	-0.099		-0.0494			-0.0298	-0.0552			-0.0081			-0.102	-0.0747	-0.0035		-0.0631	-0.0299	-0.0002
COc1cccc(OCCCN)c1-c1cc(Nc2cnc(C#N)cn2)n[nH]1 [Prexasertib] + C=CCn1c(=O)c2cnc(Nc3ccc(N4CCN(C)CC4)cc3)nc2n1-c1cccc(C(C)(C)O)n1 [AZD1775] (first compound max 1 µM, partner max 1 µM)	0.0236	0.0303	-0.0448	0.0716	-0.014	0.0633		0.0653	0.0443	0.0354	0.042	0.0467	0.073	0.0981	-0.0079	0.0553	-0.0212	0.0197	0.088	0.137
COc1cccc(OCCCN)c1-c1cc(Nc2cnc(C#N)cn2)n[nH]1 [Prexasertib] + CN(C)CCCOc1ccc(-c2ccc3ncc4c(c3c2)n(C2CCOCC2)c(=O)n4C)cn1 [AZD0156] (first compound max 1 µM, 7x7, partner max 1 µM)	-0.0503	0.0301	-0.0287	0.05	-0.0266	-0.011		0.02	-0.0473	-0.0035	0.0304	-0.0134	-0.0022	-0.0026	-0.036	-0.0485	-0.0871	-0.0133	-0.0021	0.0332
COc1cccc(OCCCN)c1-c1cc(Nc2cnc(C#N)cn2)n[nH]1 [Prexasertib] + C[C@@H]1COCCN1C2=NC(=NC(=C2)C3(CC3)[S@](=N)(=O)C)C4=C5C=CNC5=NC=C4 [AZD6738] (first compound max 1 µM, 7x7, partner max 10 µM)	-0.0794	-0.0307	-0.0845	0.0291	-0.0164	-0.0371		0.0539	0.0572	0.0242	0.0188	-0.0066	0.0106	-0.0289	-0.0346	-0.0117	-0.0168	0.0094	-0.0302	0.0177
COc1cccc(OCCCN)c1-c1cc(Nc2cnc(C#N)cn2)n[nH]1 [Prexasertib] + Cc1cc2ncnn2cc1Nc1ncc2c(n1)n(C1CCOCC1)c(=O)n2C [AZD7648] (first compound max 1 µM, 7x7, partner max 10 µM)	-0.0046	-0.0383	-0.0363	0.0121	0.0003	-0.0489		-0.0156	0.001	-0.0102	-0.0198	-0.0265	-0.0143	0.0133	-0.0384	-0.0044	-0.032	0.017	-0.0133	-0.0241
COc1cccc(OCCCN)c1-c1cc(Nc2cnc(C#N)cn2)n[nH]1 [Prexasertib] + O=C(c1cc(Cc2n[nH]c(=O)c3ccccc23)ccc1F)N1CCN(C(=O)C2CC2)CC1 [Olaparib] (first compound max 1 µM, 7x7, partner max 10 µM)	-0.0265	-0.0741	-0.111	-0.0198	0.0119	-0.066		0.034	-0.0459	-0.0557	-0.0368	-0.0346	-0.0854	-0.0781	-0.0157	-0.0081	-0.0136	-0.0312	-0.0599	0.0277
COc1cc2c(cc1OCCCCCOc1cc3c(cc1OC)C(=O)N1C=C(C)C[C@H]1C=N3)N=C[C@@H]1CC(C)=CN1C2=O [SG3199] + O=C(c1cc(Cc2n[nH]c(=O)c3ccccc23)ccc1F)N1CCN(C(=O)C2CC2)CC1 [Olaparib] (first compound max 0.001 µM, 7x7, partner max 10 µM)	-0.0495	-0.024	-0.0339	0.0336	0.0238	-0.0206		-0.075	-0.0472	-0.0494	-0.0119	-0.0163	-0.0384	-0.034	-0.0144	-0.0076	-0.0642	-0.0094	-0.0049	-0.0167
CCc1c2c(nc3ccc(O)cc13)-c1cc3c(c(=O)n1C2)COC(=O)[C@]3(O)CC [SN-38] + CN(C)CCCOc1ccc(-c2ccc3ncc4c(c3c2)n(C2CCOCC2)c(=O)n4C)cn1 [AZD0156] (first compound max 0.3 µM, 7x7, partner max 1 µM)	0.0735	0.0265	-0.0319	0.0538	0.0878	0.0458		0.0355	-0.033	-0.0408	0.0759	0.0556	-0.0613	0.115	-0.0558	-0.0082	0.015	-0.0354	0.0872	0.0401
C[C@@H](c1ccc2nccn2c1)n1nnc2ncc(-c3cnn(C)c3)nc21 [Savolitinib] + CN(CC[C@H](CSC1=CC=CC=C1)NC2=C(C=C(C=C2)S(=O)(=O)NC(=O)C3=CC=C(C=C3)N4CCC(CC4)[C@H](C5=CC=CC=C5C6=CC=C(C=C6)Cl)O)S(=O)(=O)C(F)(F)F)CCO [AZD4320] (first compound max 1 µM, 7x7, partner max 1 µM)	-0.0713	-0.0487		-0.0222			-0.0097	0.0315			-0.0406			-0.0536	-0.0766	-0.0289		0.0099	-0.0201	-0.0414
